Assay results published in PMC13192270, “RhlR quorum-sensing receptor ligand sensitivity regulates the differential expression of phenazine genes in Pseudomonas aeruginosa” (Journal of Bacteriology, 2026).

Test system: ΔrhlI strain expressing WT RhlR
Assay: RNA-seq gene expression
Assay type: cell-based, Pseudomonas aeruginosa
Set-up: opmD Expression value / mexI Expression value / mexH Expression value / mexG Expression value / lasB Expression value / rhlA Expression value / rhlB Expression value / rhlR Expression value / lecB Expression value / fhp Expression value / chiC Expression value / hcnA Expression value / mvfR Expression value / katB Expression value / norC Expression value / norB Expression value / katA Expression value: unit not given here
Conditions: 2 µM C4HSL
Procedure: To determine the effects of hypo- and hypersensitivity to C4HSL on RhlR-dependent transcription activation in P. aeruginosa, we performed RNA-seq on ΔrhlI strains expressing WT RhlR, RhlR T58L, and RhlR A44M in the presence of 2 µM C4HSL. We chose this approach to better control the levels of C4HSL across samples. All gene expression analyses were done relative to a ΔrhlI strain without exogenous supplementation of AHL. Thus, we examined the total increase in C4HSL-dependent gene regulation. We observed increased rhlA RNA levels in strains expressing WT RhlR and the RhlR T58L variant compared to ΔrhlI without C4HSL or a strain expressing the RhlR A44M variant (Table 2; Table S1). […] To corroborate our RNA-seq data, we built an rhlA promoter fusion to mScarlet and assayed reporter levels in the same genetic backgrounds as our transcriptomic experiment (Fig. S7D). Strains expressing hypersensitive RhlR variants produced similar levels of fluorescent signal relative to the WT strain, while a strain expressing a hyposensitive RhlR variant had diminished levels of fluorescent reporter (Fig. S7D).
A total of […] of overnight cultures was back diluted 1:100 in 20 mL of fresh LB media and incubated for 5 h at 37°C with shaking. Cells were harvested by centrifugation, and pellets were frozen until RNA extraction. RNA was extracted using the Invitrogen PureLink RNA Mini Kit. Pellets were resuspended in 100 µL lysozyme solution containing 10 mM Tris-HCl pH 8.0, 0.1 mM EDTA, and 1 mg/mL lysozyme. Five microliters of 1% SDS was added, and the solution was mixed with a vortex and incubated at room temperature for 5 min. A total of 350 µL lysis buffer (Invitrogen) was added with 10 µL 2-mercaptoethanol for each 1 mL of lysis buffer and vortexed. Cells were lysed by bead beating (BioSpec 0.1 MM Zirconia/Silica Beads) for two rounds of 50 s. Lysed cells were transferred to fresh microcentrifuge tubes with 250 µL of 100% ethanol and mixed with a vortex. Samples were spun in spin cartridges (Invitrogen) at 12,000 × g for 15 s at room temperature, and the flow-through was discarded. A total of 700 µL Wash Buffer I (Invitrogen) was added and spun at 12,000 × g for 15 s at room temperature, and the flow-through was discarded. A total of 500 µL Wash Buffer II (Invitrogen) with ethanol was added and centrifuged for 12,000 × g for 15 s at room temperature; the flow-through was discarded, and RNA samples were washed again. Cells were spun at 12,000 × g for 1 min at room temperature to dry the membrane with the bound RNA. A total of 50 µL RNAse-free water was added to the center of the spin cartridge, incubated at room temperature for 1 min, and centrifuged for 2 min at ≥12,000 × g at room temperature. Extracted RNA was then frozen at −80°C until further use.
Bulk RNA was sent to SeqCenter (Pittsburgh, PA) where it was processed for paired-end Illumina sequencing via rRNA depletion using Ribo-Zero Plus (Illumina). Fastq files generated by SeqCenter were processed using Rockhopper with default settings ([61][–][63]). Briefly, fastq files were aligned to the genome of Pseudomonas aeruginosa UCBPP-PA14. The reads were subsequently normalized using upper-quartile normalization, and transcript abundance was determined by reads per kilobase per million mapped reads. Differential gene expression analysis was conducted using a negative binomial distribution model, outputting a P-value for each transcript. The P-values were then corrected for false discovery using the Benjamini-Hochberg procedure, resulting in the q-values reported here (Table S2). SignalMap v2.0 (NimbleGen Systems) was used to visualize read counts for phzABCDEFG1/2, phzH, phzM, and phzS (Fig. 5). Aligned sequences generated in Rockhopper were converted to GFF files, and genes of interest were isolated into unique GFF files ([37]).

CCCC(=O)N[C@H]1CCOC1=O [C4HSL, N-butyryl-L-homoserine lactone]
chiC Expression value: 3,525,171.5 | fhp Expression value: 641,438 | hcnA Expression value: 44,841 | katA Expression value: 14,093,439.5 | katB Expression value: 3,028,118.5 | lasB Expression value: 19,914,902.5 | lecB Expression value: 366,190 | mexG Expression value: 516,840.5 | mexH Expression value: 903,148 | mexI Expression value: 920,093.5 | mvfR Expression value: 301,183 | norB Expression value: 6,989,112.5 | norC Expression value: 3,120,586.5 | opmD Expression value: 631,843.5 | phnA Expression value: 1,160,599.5 | phnB Expression value: 350,722 | phzA1 Expression value: 15,501 | phzA2 Expression value: 238,645 | phzB1 Expression value: 218,602.5 | phzB2 Expression value: 4,517,504 | phzC1 Expression value: 655,136.5 | phzC2 Expression value: 4,730,067 | phzD1 Expression value: 2,329,509 | phzD2 Expression value: 2,063,245.5 | phzE1 Expression value: 4,232,986.5 | phzE2 Expression value: 3,213,651.5 | phzF1 Expression value: 1,981,300.5 | phzF2 Expression value: 1,982,482 | phzG1 Expression value: 560,110.5 | phzG2 Expression value: 2,035,315 | phzM Expression value: 184,602 | phzS Expression value: 726,300.5 | pqsA Expression value: 1,089,687.5 | pqsB Expression value: 2,286,881.5 | pqsC Expression value: 2,211,818.5 | pqsD Expression value: 2,409,895 | pqsE Expression value: 1,210,331 | rhlA Expression value: 1,118,561.5 | rhlB Expression value: 1,056,112.5 | rhlR Expression value: 1,082,023 | chiC Log2fold change (vs ΔrhlI without AHL): 4.67 | fhp Log2fold change (vs ΔrhlI without AHL): 6.375 | hcnA Log2fold change (vs ΔrhlI without AHL): 0.4821 | katA Log2fold change (vs ΔrhlI without AHL): 2.183 | katB Log2fold change (vs ΔrhlI without AHL): 7.942 | lasB Log2fold change (vs ΔrhlI without AHL): 2.638 | lecB Log2fold change (vs ΔrhlI without AHL): 0.03694 | mexG Log2fold change (vs ΔrhlI without AHL): 6.993 | mexH Log2fold change (vs ΔrhlI without AHL): 6.553 | mexI Log2fold change (vs ΔrhlI without AHL): 5.716 | mvfR Log2fold change (vs ΔrhlI without AHL): 0.3556 | norB Log2fold change (vs ΔrhlI without AHL): 7.423 | norC Log2fold change (vs ΔrhlI without AHL): 7.283 | opmD Log2fold change (vs ΔrhlI without AHL): 6.473 | phnA Log2fold change (vs ΔrhlI without AHL): −0.9963 | phnB Log2fold change (vs ΔrhlI without AHL): −0.7095 | phzA1 Log2fold change (vs ΔrhlI without AHL): −0.9521 | phzA2 Log2fold change (vs ΔrhlI without AHL): 4.504 | phzB1 Log2fold change (vs ΔrhlI without AHL): −0.627 | phzB2 Log2fold change (vs ΔrhlI without AHL): 4.419 | phzC1 Log2fold change (vs ΔrhlI without AHL): 1.576 | phzC2 Log2fold change (vs ΔrhlI without AHL): 4.692 | phzD1 Log2fold change (vs ΔrhlI without AHL): 3.417 | phzD2 Log2fold change (vs ΔrhlI without AHL): 3.452 | phzE1 Log2fold change (vs ΔrhlI without AHL): 3.384 | phzE2 Log2fold change (vs ΔrhlI without AHL): 3.413 | phzF1 Log2fold change (vs ΔrhlI without AHL): 3.113 | phzF2 Log2fold change (vs ΔrhlI without AHL): 3.107 | phzG1 Log2fold change (vs ΔrhlI without AHL): 1.459 | phzG2 Log2fold change (vs ΔrhlI without AHL): 4.193 | phzM Log2fold change (vs ΔrhlI without AHL): −0.9094 | phzS Log2fold change (vs ΔrhlI without AHL): −0.04329 | pqsA Log2fold change (vs ΔrhlI without AHL): −1.279 | pqsB Log2fold change (vs ΔrhlI without AHL): −0.7204 | pqsC Log2fold change (vs ΔrhlI without AHL): −0.7931 | pqsD Log2fold change (vs ΔrhlI without AHL): −0.874 | pqsE Log2fold change (vs ΔrhlI without AHL): −1.056 | rhlA Log2fold change (vs ΔrhlI without AHL): 2.147 | rhlB Log2fold change (vs ΔrhlI without AHL): 2.998 | rhlR Log2fold change (vs ΔrhlI without AHL): 0.762
